Data published in ChEMBL document CHEMBL4270652, “Design, synthesis, and biological activity of substituted 2-amino-5-oxo-5H-chromeno[2,3-b]pyridine-3-carboxylic acid derivatives as inhibitors of the inflammatory kinases TBK1 and IKKε for the treatment of obesity” (Bioorg Med Chem, 2018).
Converted amounts (≈) assume the structure as drawn. The source made the active and inactive calls. No cut-off for these calls is given here.

What was measured:
[1] = test system: Mus musculus; experiment: Antiobesity activity in C57BL/6 obese mouse model assessed as body weight loss at 25 mg/kg administered daily via oral gavage measured post 4 weeks of treatment; assay type: functional, organism-based
[2] = physchem; conditions: PBS, pH 7.4
Description: Thermodynamic aqueous solubility in PBS of pH 7.4 after overnight incubation by chemiluminescent nitrogen detection

[3] = test system: Mus musculus; experiment: Increase in serum IL6 levels in C57BL/6 obese mouse model at 25 mg/kg administered via oral gavage measured 6 hrs post treatment by ELISA; assay type: functional, organism-based
[4] = test system: Mus musculus; experiment: Induction of insulin-induced hypoglycemia in C57BL/6 obese mouse model at 25 mg/kg administered daily via oral gavage measured post 4 weeks of treatment by insulin tolerance test; assay type: functional, organism-based
[5] = test system: Mus musculus; experiment: Antidiabetic activity in C57BL/6 obese mouse model assessed as reduction in blood glucose level at 25 mg/kg administered daily via oral gavage measured post 3 weeks of treatment by glucose tolerance test; assay type: functional, organism-based

solubility thermodynamic [2] | SMILES | further results
94.4 µM (≈ 31.9 µg/mL) | Nc1nc2oc3ccc(C4CCCCC4)cc3c(=O)c2cc1C(=O)O | Activity [1]: Active; Activity [3]: Active; Activity [4]: Active; Activity [5]: Active
 | CC(C)c1ccc2oc3nc(N)c(C(=O)O)cc3c(=O)c2c1 | Activity [3]: Active; Activity [4]: Active; Activity [5]: Active
229 µM (≈ 68.4 µg/mL) | CC(C)c1cccc2oc3nc(N)c(C(=O)O)cc3c(=O)c12 | 
119 µM (≈ 38.8 µg/mL) | CC(C)CCc1ccc2oc3nc(N)c(C(=O)O)cc3c(=O)c2c1 | 
121 µM (≈ 46 µg/mL) | CC(=O)N1CCC(c2ccc3oc4nc(N)c(C(=O)O)cc4c(=O)c3c2)CC1 | 
19.1 µM (≈ 5.7 µg/mL) | CC(C)c1ccc2c(=O)c3cc(C(=O)O)c(N)nc3oc2c1 | 
13.7 µM (≈ 4.33 µg/mL) | CC(C)c1cc2c(=O)c3cc(C(=O)O)c(N)nc3oc2cc1F | 
77.9 µM (≈ 23.3 µg/mL) | CC(C)c1cc2c(=O)c3cc(C(=O)O)c(N)nc3oc2cn1 | 
76.8 µM (≈ 23 µg/mL) | CN(C)c1ccc2oc3nc(N)c(C(=O)O)cc3c(=O)c2c1 | 
179 µM (≈ 55.8 µg/mL) | CC(C)Cc1ccc2oc3nc(N)c(C(=O)O)cc3c(=O)c2c1 | 
61.3 µM (≈ 21.8 µg/mL) | Nc1nc2oc3ccc(C4CCSCC4)cc3c(=O)c2cc1C(=O)O | 
< 1.1 µM | Nc1nc2oc3ccc(C4CCC(=O)CC4)cc3c(=O)c2cc1C(=O)O | 
